Laboratory results published in ChEMBL document CHEMBL5291721, “A preclinical secondary pharmacology resource illuminates target-adverse drug reaction associations of marketed drugs” (Nat Commun, 2023).

How the values were obtained:
[1] = molecular target: Acetylcholinesterase (Homo sapiens, UniProt P22303); type: functional
[2] = molecular target: T1, Adenosine receptor A3 (Homo sapiens, UniProt P0DMS8)
T1 sequence (P0DMS8 whole entry): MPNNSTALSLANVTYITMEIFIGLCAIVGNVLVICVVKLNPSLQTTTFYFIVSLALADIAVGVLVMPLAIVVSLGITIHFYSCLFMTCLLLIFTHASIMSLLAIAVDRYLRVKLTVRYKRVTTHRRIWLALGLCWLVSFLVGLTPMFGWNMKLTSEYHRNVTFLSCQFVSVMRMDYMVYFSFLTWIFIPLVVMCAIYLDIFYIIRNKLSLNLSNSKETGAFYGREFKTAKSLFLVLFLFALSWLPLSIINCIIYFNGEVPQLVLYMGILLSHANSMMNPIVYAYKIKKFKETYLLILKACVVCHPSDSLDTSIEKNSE

[3] = molecular target: T2, Alpha-2A adrenergic receptor (Homo sapiens, UniProt P08913)
T2 sequence (P08913 whole entry): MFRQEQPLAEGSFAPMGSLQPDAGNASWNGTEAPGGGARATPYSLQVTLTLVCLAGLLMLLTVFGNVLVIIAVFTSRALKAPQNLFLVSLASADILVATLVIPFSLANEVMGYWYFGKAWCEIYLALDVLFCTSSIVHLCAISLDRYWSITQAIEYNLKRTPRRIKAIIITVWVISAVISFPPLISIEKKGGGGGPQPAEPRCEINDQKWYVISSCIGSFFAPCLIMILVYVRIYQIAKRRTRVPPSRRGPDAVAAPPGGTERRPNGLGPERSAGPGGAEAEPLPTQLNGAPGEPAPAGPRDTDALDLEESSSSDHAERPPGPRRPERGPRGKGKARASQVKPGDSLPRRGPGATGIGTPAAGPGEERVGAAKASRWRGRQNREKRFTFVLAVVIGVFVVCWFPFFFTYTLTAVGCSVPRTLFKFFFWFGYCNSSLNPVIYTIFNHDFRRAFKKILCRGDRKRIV

[4] = molecular target: T3, Muscarinic acetylcholine receptor M2 (Homo sapiens, UniProt P08172)
T3 sequence (P08172 whole entry): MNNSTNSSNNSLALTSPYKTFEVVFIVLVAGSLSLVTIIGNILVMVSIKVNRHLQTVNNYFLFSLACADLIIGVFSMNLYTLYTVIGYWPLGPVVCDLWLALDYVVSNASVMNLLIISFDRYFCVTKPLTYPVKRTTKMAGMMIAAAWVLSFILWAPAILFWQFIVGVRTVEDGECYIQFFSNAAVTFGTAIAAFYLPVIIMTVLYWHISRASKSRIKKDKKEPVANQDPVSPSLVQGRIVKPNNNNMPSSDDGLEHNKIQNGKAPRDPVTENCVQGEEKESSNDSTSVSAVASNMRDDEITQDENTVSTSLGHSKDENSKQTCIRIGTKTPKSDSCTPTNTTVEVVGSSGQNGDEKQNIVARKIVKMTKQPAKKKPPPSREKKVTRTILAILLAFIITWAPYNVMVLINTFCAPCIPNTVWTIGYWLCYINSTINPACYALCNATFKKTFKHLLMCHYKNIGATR

[5] = molecular target: D(3) dopamine receptor (Homo sapiens, UniProt P35462)
[6] = molecular target: T4, Estrogen receptor (Homo sapiens, UniProt P03372)
T4 sequence (P03372 whole entry): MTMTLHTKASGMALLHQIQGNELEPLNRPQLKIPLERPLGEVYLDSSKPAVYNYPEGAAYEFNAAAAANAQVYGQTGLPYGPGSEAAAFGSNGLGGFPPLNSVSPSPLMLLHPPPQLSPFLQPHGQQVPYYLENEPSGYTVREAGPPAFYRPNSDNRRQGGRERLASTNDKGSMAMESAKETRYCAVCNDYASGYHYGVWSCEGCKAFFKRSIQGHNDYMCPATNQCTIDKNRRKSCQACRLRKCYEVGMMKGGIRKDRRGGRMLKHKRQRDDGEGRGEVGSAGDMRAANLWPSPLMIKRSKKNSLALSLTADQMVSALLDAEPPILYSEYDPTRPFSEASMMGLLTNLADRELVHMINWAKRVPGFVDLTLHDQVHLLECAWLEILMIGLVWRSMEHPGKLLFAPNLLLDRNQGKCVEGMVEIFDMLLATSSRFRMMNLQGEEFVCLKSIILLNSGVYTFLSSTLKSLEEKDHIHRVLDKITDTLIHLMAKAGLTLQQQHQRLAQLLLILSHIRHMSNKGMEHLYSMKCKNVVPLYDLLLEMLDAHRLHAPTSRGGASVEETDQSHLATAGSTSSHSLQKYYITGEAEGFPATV

[7] = molecular target: Voltage-gated inwardly rectifying potassium channel KCNH2 (Homo sapiens, UniProt Q12809); type: functional; conditions: read-out: AC50
[8] = molecular target: Mu-type opioid receptor (Homo sapiens, UniProt P35372)
[9] = molecular target: cGMP-inhibited 3',5'-cyclic phosphodiesterase 3A (Homo sapiens, UniProt Q14432); type: functional
[10] = molecular target: Sodium-dependent noradrenaline transporter (Homo sapiens, UniProt P23975)
[11] = molecular target: Sodium-dependent serotonin transporter (Homo sapiens, UniProt P31645)
[12] = molecular target: T5, Thromboxane A2 receptor (Homo sapiens, UniProt P21731); type: functional, cell-based
T5 sequence (P21731 whole entry): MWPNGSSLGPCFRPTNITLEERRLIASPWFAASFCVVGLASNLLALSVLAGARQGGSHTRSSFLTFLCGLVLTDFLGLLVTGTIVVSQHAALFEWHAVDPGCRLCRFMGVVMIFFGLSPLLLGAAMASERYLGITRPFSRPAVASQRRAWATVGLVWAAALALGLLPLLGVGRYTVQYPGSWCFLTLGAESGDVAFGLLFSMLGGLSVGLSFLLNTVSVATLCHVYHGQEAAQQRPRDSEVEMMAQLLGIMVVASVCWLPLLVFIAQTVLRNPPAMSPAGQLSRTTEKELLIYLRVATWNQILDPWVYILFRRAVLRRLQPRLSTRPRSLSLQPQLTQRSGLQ

[13] = molecular target: T5, Thromboxane A2 receptor; type: functional, cell-based; remark: listed apart in the source
Also: assay procedure not described here.

Acetylcholinesterase, sequence (P22303 whole entry): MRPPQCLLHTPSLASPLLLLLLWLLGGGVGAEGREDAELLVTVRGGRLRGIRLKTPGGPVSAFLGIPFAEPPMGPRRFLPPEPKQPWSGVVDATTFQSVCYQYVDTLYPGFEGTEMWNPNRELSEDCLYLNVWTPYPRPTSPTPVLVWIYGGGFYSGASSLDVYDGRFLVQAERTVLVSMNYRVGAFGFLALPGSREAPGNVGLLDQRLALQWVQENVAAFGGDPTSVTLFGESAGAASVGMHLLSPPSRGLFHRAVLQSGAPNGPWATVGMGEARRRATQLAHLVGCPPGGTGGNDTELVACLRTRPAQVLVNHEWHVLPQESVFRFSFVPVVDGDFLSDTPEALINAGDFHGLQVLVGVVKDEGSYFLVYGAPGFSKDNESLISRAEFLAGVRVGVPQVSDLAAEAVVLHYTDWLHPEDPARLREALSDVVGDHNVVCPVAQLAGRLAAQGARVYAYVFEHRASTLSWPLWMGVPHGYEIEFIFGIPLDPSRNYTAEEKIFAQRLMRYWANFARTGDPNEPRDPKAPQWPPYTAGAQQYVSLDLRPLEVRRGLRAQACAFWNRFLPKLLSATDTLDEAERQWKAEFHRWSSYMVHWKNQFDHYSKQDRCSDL
cGMP-inhibited 3',5'-cyclic phosphodiesterase 3A, sequence (Q14432 whole entry): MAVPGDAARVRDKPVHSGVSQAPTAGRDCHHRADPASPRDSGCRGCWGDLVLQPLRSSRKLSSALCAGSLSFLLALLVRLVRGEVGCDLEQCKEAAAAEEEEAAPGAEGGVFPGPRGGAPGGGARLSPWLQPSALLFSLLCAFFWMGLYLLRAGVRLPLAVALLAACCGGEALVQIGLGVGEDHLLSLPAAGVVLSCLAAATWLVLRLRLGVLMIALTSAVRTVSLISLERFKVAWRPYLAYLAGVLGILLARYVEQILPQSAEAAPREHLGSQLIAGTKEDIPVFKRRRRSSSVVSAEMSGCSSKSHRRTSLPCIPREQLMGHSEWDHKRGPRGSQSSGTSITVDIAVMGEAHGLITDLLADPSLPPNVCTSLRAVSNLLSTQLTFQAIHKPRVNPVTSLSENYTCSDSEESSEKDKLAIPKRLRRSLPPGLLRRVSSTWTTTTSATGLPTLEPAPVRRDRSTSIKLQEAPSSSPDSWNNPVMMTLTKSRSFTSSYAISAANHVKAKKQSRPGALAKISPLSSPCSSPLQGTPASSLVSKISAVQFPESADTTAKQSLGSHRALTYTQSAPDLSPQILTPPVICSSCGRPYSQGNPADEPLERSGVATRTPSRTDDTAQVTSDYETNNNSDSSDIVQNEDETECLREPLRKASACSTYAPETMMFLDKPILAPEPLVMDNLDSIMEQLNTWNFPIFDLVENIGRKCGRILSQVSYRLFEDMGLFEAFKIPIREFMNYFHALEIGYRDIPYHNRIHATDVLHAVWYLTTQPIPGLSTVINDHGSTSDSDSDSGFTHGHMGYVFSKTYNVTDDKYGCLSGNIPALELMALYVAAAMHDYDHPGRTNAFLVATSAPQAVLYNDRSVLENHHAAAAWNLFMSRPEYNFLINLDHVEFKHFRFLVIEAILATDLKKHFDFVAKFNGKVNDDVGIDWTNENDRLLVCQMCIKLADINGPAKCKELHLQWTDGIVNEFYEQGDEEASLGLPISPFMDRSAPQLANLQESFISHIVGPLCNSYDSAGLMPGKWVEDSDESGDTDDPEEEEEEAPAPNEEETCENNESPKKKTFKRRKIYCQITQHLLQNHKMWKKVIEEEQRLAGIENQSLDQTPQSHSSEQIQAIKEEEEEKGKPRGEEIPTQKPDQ
Voltage-gated inwardly rectifying potassium channel KCNH2, sequence (Q12809 whole entry): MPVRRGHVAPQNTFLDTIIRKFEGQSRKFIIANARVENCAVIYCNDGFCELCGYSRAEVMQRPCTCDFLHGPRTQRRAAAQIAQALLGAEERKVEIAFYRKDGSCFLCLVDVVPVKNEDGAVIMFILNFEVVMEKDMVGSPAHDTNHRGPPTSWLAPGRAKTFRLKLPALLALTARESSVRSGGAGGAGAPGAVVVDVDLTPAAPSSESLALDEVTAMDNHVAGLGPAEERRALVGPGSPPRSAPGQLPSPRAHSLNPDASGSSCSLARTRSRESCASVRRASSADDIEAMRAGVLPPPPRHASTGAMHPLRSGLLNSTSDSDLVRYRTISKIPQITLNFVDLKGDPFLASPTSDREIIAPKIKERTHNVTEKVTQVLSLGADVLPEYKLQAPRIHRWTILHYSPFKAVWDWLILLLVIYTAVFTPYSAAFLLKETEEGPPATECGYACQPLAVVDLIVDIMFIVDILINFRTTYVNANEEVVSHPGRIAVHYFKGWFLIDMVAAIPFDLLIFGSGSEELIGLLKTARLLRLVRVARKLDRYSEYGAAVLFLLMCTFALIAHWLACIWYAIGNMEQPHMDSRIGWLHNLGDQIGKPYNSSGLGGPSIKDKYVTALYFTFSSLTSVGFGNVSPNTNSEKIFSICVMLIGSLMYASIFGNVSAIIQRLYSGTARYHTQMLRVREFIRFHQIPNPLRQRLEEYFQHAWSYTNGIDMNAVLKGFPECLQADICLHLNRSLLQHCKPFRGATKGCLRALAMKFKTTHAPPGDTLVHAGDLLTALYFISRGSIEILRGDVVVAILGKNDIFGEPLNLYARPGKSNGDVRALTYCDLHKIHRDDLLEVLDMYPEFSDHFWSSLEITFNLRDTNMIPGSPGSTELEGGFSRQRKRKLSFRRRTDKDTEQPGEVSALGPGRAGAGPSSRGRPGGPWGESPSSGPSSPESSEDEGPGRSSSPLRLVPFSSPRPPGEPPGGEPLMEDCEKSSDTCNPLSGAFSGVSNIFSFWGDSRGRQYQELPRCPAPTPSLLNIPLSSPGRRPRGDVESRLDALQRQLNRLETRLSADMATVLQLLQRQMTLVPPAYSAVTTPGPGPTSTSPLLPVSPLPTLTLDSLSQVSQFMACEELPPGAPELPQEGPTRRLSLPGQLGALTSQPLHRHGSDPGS
Sodium-dependent noradrenaline transporter, sequence (P23975 whole entry): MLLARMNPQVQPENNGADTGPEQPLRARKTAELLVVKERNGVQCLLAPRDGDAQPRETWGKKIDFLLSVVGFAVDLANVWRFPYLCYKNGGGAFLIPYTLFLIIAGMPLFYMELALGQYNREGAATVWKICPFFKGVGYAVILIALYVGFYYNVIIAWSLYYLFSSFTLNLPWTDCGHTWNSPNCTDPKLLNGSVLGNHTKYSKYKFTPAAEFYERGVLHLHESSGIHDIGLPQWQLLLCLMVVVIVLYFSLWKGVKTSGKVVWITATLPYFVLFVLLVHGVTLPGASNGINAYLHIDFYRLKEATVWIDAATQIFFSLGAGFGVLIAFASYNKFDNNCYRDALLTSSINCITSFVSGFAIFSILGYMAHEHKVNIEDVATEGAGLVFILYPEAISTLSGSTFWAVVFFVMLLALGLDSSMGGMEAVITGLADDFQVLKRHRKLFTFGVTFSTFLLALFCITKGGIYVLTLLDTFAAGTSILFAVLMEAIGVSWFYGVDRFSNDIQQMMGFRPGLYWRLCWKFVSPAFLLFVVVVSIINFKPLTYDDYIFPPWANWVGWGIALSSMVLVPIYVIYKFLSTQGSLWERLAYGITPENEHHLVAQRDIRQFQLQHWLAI
D(3) dopamine receptor, sequence (P35462 whole entry): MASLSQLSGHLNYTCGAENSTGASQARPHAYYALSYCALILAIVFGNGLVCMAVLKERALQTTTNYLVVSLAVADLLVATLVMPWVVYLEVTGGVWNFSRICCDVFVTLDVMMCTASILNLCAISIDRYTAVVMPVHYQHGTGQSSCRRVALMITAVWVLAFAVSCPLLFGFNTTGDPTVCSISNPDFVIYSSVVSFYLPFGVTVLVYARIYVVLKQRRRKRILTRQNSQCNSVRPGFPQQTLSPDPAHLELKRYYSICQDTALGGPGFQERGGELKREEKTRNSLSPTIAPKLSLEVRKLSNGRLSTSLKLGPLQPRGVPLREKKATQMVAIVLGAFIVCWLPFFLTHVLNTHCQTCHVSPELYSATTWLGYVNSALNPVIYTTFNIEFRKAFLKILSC
Sodium-dependent serotonin transporter, sequence (P31645 whole entry): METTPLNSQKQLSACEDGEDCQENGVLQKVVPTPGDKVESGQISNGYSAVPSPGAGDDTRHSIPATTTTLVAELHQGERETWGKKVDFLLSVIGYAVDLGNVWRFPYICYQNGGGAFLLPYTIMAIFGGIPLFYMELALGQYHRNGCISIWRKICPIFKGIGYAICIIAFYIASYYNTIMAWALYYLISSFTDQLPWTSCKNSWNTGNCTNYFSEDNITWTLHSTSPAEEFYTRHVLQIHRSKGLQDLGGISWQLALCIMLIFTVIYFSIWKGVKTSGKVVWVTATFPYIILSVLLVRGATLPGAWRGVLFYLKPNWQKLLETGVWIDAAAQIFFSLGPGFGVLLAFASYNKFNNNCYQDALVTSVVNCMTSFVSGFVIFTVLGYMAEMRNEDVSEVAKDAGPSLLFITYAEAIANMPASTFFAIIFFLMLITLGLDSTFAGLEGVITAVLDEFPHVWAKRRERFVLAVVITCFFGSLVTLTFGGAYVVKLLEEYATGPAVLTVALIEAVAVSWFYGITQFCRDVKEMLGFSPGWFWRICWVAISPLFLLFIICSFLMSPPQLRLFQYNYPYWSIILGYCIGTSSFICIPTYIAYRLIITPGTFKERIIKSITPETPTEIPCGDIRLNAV
Mu-type opioid receptor, sequence (P35372 whole entry): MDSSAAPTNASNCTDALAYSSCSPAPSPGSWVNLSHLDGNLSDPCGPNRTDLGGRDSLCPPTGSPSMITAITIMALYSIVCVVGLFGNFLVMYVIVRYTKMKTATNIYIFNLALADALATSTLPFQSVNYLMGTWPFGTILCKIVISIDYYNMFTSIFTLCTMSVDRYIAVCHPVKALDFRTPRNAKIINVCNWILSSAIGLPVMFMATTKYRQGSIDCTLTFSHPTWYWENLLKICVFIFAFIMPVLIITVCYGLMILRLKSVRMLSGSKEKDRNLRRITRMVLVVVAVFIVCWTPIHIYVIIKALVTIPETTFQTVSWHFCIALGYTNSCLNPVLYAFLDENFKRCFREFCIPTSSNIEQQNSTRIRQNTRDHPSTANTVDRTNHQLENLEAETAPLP

SMILES | AC50 [1] [µM] | AC50 [2] [µM] | AC50 [3] [µM] | AC50 [4] [µM] | AC50 [5] [µM] | AC50 [6] [µM] | AC50 [7] [µM] | AC50 [8] [µM] | AC50 [9] [µM] | AC50 [10] [µM] | AC50 [11] [µM] | AC50 [12] [µM] | AC50 [13] [µM]
CC(=O)OC(C)OC(=O)C(C)c1ccc(-c2ccccc2)c(F)c1 (stereo not given) | > 30 | > 30 | > 30 | > 30 | > 30 | > 30 | > 30 | > 30 | > 30 | > 30 | > 30 | > 30 | > 30
COC(=O)C1=C(C)NC(C)=C(C(=O)O[C@H]2CCN(Cc3ccccc3)C2)[C@H]1c1cccc([N+](=O)[O-])c1 [BARNIDIPINE] | > 30 | 4.65 | 6.54 | 2.35 | 4.3 | > 30 | 1.8 | 3.24 | > 30 | 0.635 | 13.6 | > 30 | 4.47
Nc1ncnc(Nc2ccc(Cl)cc2)n1 [CHLORAZANIL] | > 30 | 7.95 | > 30 | > 30 | > 30 | > 30 | > 30 | > 30 | > 30 | 5.4 | > 30 | > 30 | > 30
CCC[C@@H]1C[C@@H](C(=O)N[C@@H]([C@H]2O[C@H](SC)[C@H](OP(=O)(O)O)[C@@H](O)[C@H]2O)[C@H](C)Cl)N(C)C1 [CLINDAMYCIN PHOSPHATE] | > 30 | > 30 | > 30 | > 30 | > 30 | > 30 | > 30 | > 30 | > 30 | > 30 | > 30 | > 30 | > 30
Nc1ccncc1 [DALFAMPRIDINE] | > 30 | > 30 | > 30 | > 30 | > 30 | > 30 | – | > 30 | > 30 | > 30 | > 30 | > 30 | > 30
C[C@@H](O)[C@H]1C(=O)N2C(C(=O)O)=C([C@H]3CCCO3)S[C@H]12 [FAROPENEM] | > 30 | > 30 | > 30 | > 30 | > 30 | > 30 | > 30 | > 30 | > 30 | > 30 | > 30 | > 30 | > 30
CCOC(=O)c1ccc(OC(=O)CCCCCNC(=N)N)cc1 [GABEXATE] | > 30 | > 30 | > 30 | 1.49 | > 30 | > 30 | 25 | > 30 | > 30 | 9.03 | > 30 | > 30 | > 30
